According to patent publication US20240316008A1, “TREATMENT OF SYSTEMIC IMMUNE ACTIVATION SYNDROMES” (TRANQUIS THERAPEUTICS, INC., priority 2020, published 2024):

Test system: TNFα
Test: TNFα release by LPS-stimulated BV2 cells (ELISA)
Assay type: cell-based, murine
Conditions: BV-2 cells, 10 μM, ELISA at 24 hours
Experimental: First, 100 μl of supernatant was removed from Cell Plate and transferred to a Dilution Plate, which was then centrifuged at 216×g for 10 minutes to remove particulates. The dilution plate was either assayed immediately or aliquots were taken and stored at stored at ≤−20° C.; repeated freeze-thaw cycles were avoided.
Next, a standard curve was prepared by first pipetting 900 ul of Calibrator Diluent RD5K into the 700 pg/mL tube, followed by 200 μl of the appropriate calibrator diluent in the remaining tubes. The stock solution was used to produce a dilution. The resulting tubes were then thoroughly mixed. The Mouse TNFα Standard (700 pg/mL) served as the high standard, and the Calibrator Diluent RD5T served as the zero standard at 0 pg/ml.
Assay Diluent RD1-63 (50 ul) was then added to the center of each well and mixed before and during its use. Then, 50 ul of either standard, control, or sample was added to the center of each well, and covered with adhesive strip. The plate was then mixed for 1 minute and incubated for 2 hours at room temperature.
Each well was then aspirated and washed by filling each well with Wash Buffer (400 ul) five times. After the last wash, the remaining Wash Buffer was removed by aspirating or decanting. TNFα […] conjugate (100 ul) was then added to each well, covered with adhesive strip, incubated for 2 hours at room temperature, and washed and/or aspirated five times.
Substrate solution (100 ul) was then added to each well, incubated in the dark for 30 minutes at room temperature, followed by addition of 100 μl of Stop Solution and mixed. The optical density of each well was determined within 30 minutes by using a microplate reader set to 450 nm.
Plates were read on a Spectrostar Nano machine with built-in MARS data analysis at […].
For TNFα ELISA, the BV-2 cells were very responsive to low concentrations of LPS. A concentration range of 0.1 ng/ml to 1,000 ng/ml was tested. 0.3 ng/ml LPS produced enough TNFα release (8-10 fold above background) from these cells after 22 hours stimulation without saturating the linear range of the ELISA detection system. If higher LPS concentrations are used for stimulating BV-2 cells, a […] is advised to stay within the linear range of the detection system. The current TNFα protocol uses 10,000 cells per well in 96 well plate. A cell count titration can optimize S/B ratio. Miniaturization from 96 well to 384 well is also feasible with this assay.
The TNFα ELISA assay is described in Example 5. The IL-6 assay is described below.

## CC(C)(C)c1ccc(-c2nc3ccccc3[nH]2)cc1 [TQS-168, 2-(4-tert-butylphenyl)-1H-benzimidazole]
0.3 ng/ml LPS
  suppression of TNFα production: about 25%
Mus musculus, 1 ng/ml LPS, read-out: inhibition of TNFα production
  inhibition at 10 µM: ~35%
